Measurements reported in US10137130B2, “Methods of treatment of malignancies” (Celgene Corporation, priority 2016, dated 2018).

Legend:
[1] = tested on: rrAML with an IDH2 mutation; test: FLT3 mutation status and Compound 1 response in rrAML patients of the Example 1 trial (FoundationOne Heme panel, LabPMM PCR); type: in vivo, human
Protocol: A subset of the clinical samples from the trial described in Example 1 were analyzed at screening. Sample types included bone marrow, peripheral blood and mononuclear cells isolated from bone marrow or peripheral blood. DNAs were extracted from these samples and sequenced at Foundation Medicine (Heme Panel, see http://foundationone.com/learn.php) using next generation sequencing technique.
Overall response rate (ORR), the primary efficacy endpoint, is defined as the rate of responders including complete remission (CR), CR with incomplete platelet recovery (CRp), marrow CR (mCR) (morphologic leukemia-free state [MLFS] for subjects with AML), CR with incomplete hematologic recovery (CRi), and partial remission (PR). Other measures of clinical activity including complete remission rate (CRR), duration of remission/response, event-free survival, overall survival, and time to remission/response will be summarized.
FoundationOne Heme panel analysis was performed on 100 screening samples from rrAML patients in the trial described in Example 1. Sample types included peripheral blood and bone marrow.
Therefore, the lower frequency reported in the above study is likely due to lack of recruitment of patients with FLT3-ITD mutations.
Tables 8 provides a contingency table indicating lack of statistical significance for lower ORR observed in efficacy evaluable patients presenting with FLT3-ITD and Table 9 provides a contingency table indicating statistical significance of lower ORR seen in patients presenting with either FLT3-ITD or FLT3 point mutation (PM).

2-HG plasma levels = test: Phase 1/2 study AG221-C-001: pharmacodynamic response (2-HG plasma levels); type: in vivo, human
Protocol: 2HG can be detected in a sample by the methods of PCT Publication No. WO 2011/050210 and US Publication No. US2012/0121515 hereby incorporated by reference in their entirety, or by analogous methods. In an exemplary method, 2HG can be detected in a sample by LC/MS. The sample is mixed 80:20 with methanol, and centrifuged at 3,000 rpm for 20 minutes at 4 degrees Celsius. The resulting supernatant can be collected and stored at −80 degrees Celsius prior to LC-MS/MS to assess 2-hydroxyglutarate levels. A variety of different liquid chromatography (LC) separation methods can be used. Each method can be coupled by negative electrospray ionization (ESI, −3.0 kV) to triple-quadrupole mass spectrometers operating in multiple reaction monitoring (MRM) mode, with MS parameters optimized on infused metabolite standard solutions. Metabolites can be separated by reversed phase chromatography using 10 mM tributyl-amine as an ion pairing agent in the aqueous mobile phase, according to a variant of a previously reported method (Luo et al. J Chromatogr A 1147, 153-64, 2007). One method allows resolution of TCA metabolites: t=0, 50% B; t=5, 95% B; t=7, 95% B; t=8, 0% B, where B refers to an organic mobile phase of 100% methanol. Another method is specific for 2-hydroxyglutarate, running a fast linear gradient from 50%-95% B (buffers as defined above) over 5 minutes. A Synergi Hydro-RP, 100 mm×2 mm, 2.1 μm particle size (Phenomonex) can be used as the column, as described above. Metabolites can be quantified by comparison of peak areas with pure metabolite standards at known concentration. Metabolite flux studies from ^13C-glutamine can be performed as described, e.g., in Munger et al. Nat Biotechnol 26, 1179-86, 2008. […]
Subjects in the dose escalation phase and Part 1 Expansion also will undergo PK/PD assessments over a 10-hour period on C1D15, C2D1, and C4D1. […] Available bone marrow biopsy samples also will be assessed for 2-HG and α-KG levels. […]

[2] = FLT3-ITD+ efficacy evaluable patients
[3] = FLT3-ITD+/PM+ patients (either FLT3-ITD or FLT3 point mutation)
[4] = FLT3-ITD− efficacy evaluable patients

In the case of `CC(C)(O)CNc1nc(Nc2ccnc(C(F)(F)F)c2)nc(-c2cccc(C(F)(F)F)n2)n1` [COMPOUND 1, 2-methyl-1-[(4-[6-(trifluoromethyl)pyridin-2-yl]-6-{[2-(trifluoromethyl)pyridin-4-yl]amino}-1,3,5-triazin-2-yl)amino]propan-2-ol], the “No Response (number of patients)” value [1, 2] is reported as 3, the “Response (number of patients)” value [1, 2] is reported as 0 and the ORR ([1]; FLT3-ITD+ patients) is reported as 0%. For the same molecule, the “No Response (number of patients)” value [1, 3] was 9, the “Response (number of patients)” value [1, 3] was 1 and the ORR ([1]; FLT3-ITD+/PM+ patients (mFLT3)) was 10.0%. The “No Response (number of patients)” value [1, 4] was 38, the “Response (number of patients)” value [1, 4] was 33 and the “No Response (number of patients)” value ([1]; FLT3-ITD−/PM− patients) was 42. For the same molecule, the “Response (number of patients)” value ([1]; FLT3-ITD−/PM− patients) was 40, the “Odds ratio (response, mFLT3 vs FLT3-ITD−/PM−)” value ([1]; Fisher's Exact test, p = 0.039) was 0.117 and the “Odds ratio (response, FLT3-ITD+ vs FLT3-ITD−)” value ([1]; Fisher's Exact test, p = 0.249) was 0.164. The “reduction in 2-HG plasma levels” value (2-HG plasma levels; by Day 1 of Cycle 2, subjects of AG221-C-001) was “sustained reduction”, the “inhibition of 2-HG plasma levels” value (2-HG plasma levels; most subjects with R140Q mutation, all doses) was “up to 98%” and the “exposure and inhibition of 2-HG in relation to dose” value (2-HG plasma levels; subjects with R172K mutation) was “Increasing dose is associated with higher exposure and inhibition of 2-HG”.
